In US11505570B2, “Organic acid salt of nicotinamide riboside, composition including organic acid salt, and preparation methods of organic acid salt and composition” (SHENZHEN DIECKMANN TECH CO., LTD, priority 2020, dated 2022):

Assay: Stability test: storage in nitrogen-filled sealed bottles, purity test by HPLC every month
Format: physicochemical
Details: for purity by HPLC, Time (month) 1: 1 month; for purity by HPLC, Time (month) 2: 2 months; for purity by HPLC, Time (month) 3: 3 months; for purity by HPLC, Time (month) 4: 4 months; for purity by HPLC, Time (month) 5: 5 months; for purity by HPLC, Time (month) 6: 6 months; for Decomposition rate: over 6 months; for purity by HPLC, Time (month) 0: initial sample (0 month); for stability, molar ratio (NR to organic acid) 1:2 compared with 1:1: in words, comparison with the corresponding 1:1 product
Protocol: I. Preparation of samples
1. The products of Examples 1 to 4, Examples 10 to 13, and the comparative example were each dispensed into 13 bottles, each of 50 mg; and the bottles were filled with nitrogen and sealed. One of the bottles (initial sample) was first tested, and the remaining 12 bottles were divided into two groups (each with 6 bottles) and stored. The bottles in each group were numbered 1 to 6 according to a test sequence. The two groups of bottles were stored at 2° C. to 8° C. and −20° C., respectively; and one sample was tested every month.
2. The products of Examples 6 to 9 and Example 14 were each dispensed into 7 bottles, each of 50 mg; and the bottles were filled with nitrogen and sealed. One of the bottles (initial sample) was first tested, and the remaining 6 bottles were numbered 1 to 6 according to a test sequence and then stored at 2° C. to 8° C. One sample was tested every month.
II. Preparation of test sample solutions
One bottle of sample was taken at a time and prepared into a 5 mL or 10 mL solution using a 5 mL or 10 mL volumetric flask, and then the solution was filtered through a membrane to be ready for purity test by HPLC.
Mobile phase: isocratic elution: 5% water (0.1% formic acid)+95% methanol (0.1% formic acid)
Temperature and humidity: 23.0° C. and 54% RH
Sample dissolution: dissolution by methanol
Chromatographic column: ODS-2, 4.6 * 250 mm, 5 μm, and constant pressure: 12 Mpa to 13 Mpa
Running time: ≥15 min IV.

[1] = Table 2, stored at 2° C. to 8° C.

SMILES	purity by HPLC, Time (month) 1 (Table 1, stored at −20° C.)	purity by HPLC, Time (month) 2 (Table 1, stored at −20° C.)	purity by HPLC, Time (month) 3 (Table 1, stored at −20° C.)	purity by HPLC, Time (month) 4 (Table 1, stored at −20° C.)	purity by HPLC, Time (month) 5 (Table 1, stored at −20° C.)	purity by HPLC, Time (month) 6 (Table 1, stored at −20° C.)	Decomposition rate (Table 1, stored at −20° C.)	purity by HPLC, Time (month) 0 (Table 1, −20° C.)	purity by HPLC, Time (month) 0 (Table 2, 2° C. to 8° C.)	purity by HPLC, Time (month) 1 [1]	purity by HPLC, Time (month) 2 [1]	purity by HPLC, Time (month) 3 [1]	purity by HPLC, Time (month) 4 [1]	purity by HPLC, Time (month) 5 [1]	purity by HPLC, Time (month) 6 [1]	Decomposition rate [1]	stability, molar ratio (NR to organic acid) 1:2 compared with 1:1
NC(=O)c1ccc[n+]([C@@H]2O[C@H](CO)[C@@H](O)[C@H]2O)c1.[Cl-] [Comparative Example, chlorine salt of NR, reference compound]	98.284	98.087	97.701	97.449	97.575	97.210	1.33%	98.525	98.525	98.171	98.206	97.540	97.612	97.384	97.109	1.44%	
NC(=O)c1ccc[n+]([C@@H]2O[C@H](CO)[C@@H](O)[C@H]2O)c1.O=C(O)CC(O)(CC(=O)O)C(=O)[O-] [Example 1, citrate of NR (1:1)]	98.828	98.450	98.190	98.252	97.978	97.814	1.13%	98.930	98.930	98.198	98.409	98.171	97.957	97.823	97.670	1.27%	
NC(=O)c1ccc[n+]([C@@H]2O[C@H](CO)[C@@H](O)[C@H]2O)c1.O=C(O)CC(O)(CC(=O)O)C(=O)O.O=C(O)CC(O)(CC(=O)O)C(=O)[O-] [Example 2, citrate of NR (1:2)]	98.317	98.079	98.168	97.933	97.806	97.788	0.69%	98.471	98.471	98.492	98.240	98.097	97.626	97.704	97.498	0.99%	higher stability
NC(=O)c1ccc[n+]([C@@H]2O[C@H](CO)[C@@H](O)[C@H]2O)c1.O=C([O-])C[C@H](O)C(=O)O [Example 3, malate of NR (1:1)]	98.691	98.310	98.288	98.076	97.912	97.645	0.94%	98.573	98.573	98.482	98.185	98.270	97.946	97.592	97.337	1.25%	
NC(=O)c1ccc[n+]([C@@H]2O[C@H](CO)[C@@H](O)[C@H]2O)c1.O=C(O)C[C@H](O)C(=O)O.O=C([O-])C[C@H](O)C(=O)O [Example 4, malate of NR (1:2)]	98.547	98.629	98.316	98.207	98.081	98.100	0.73%	98.818	98.818	98.424	98.360	98.298	98.239	97.707	97.816	1.01%	higher stability
